Test results as given in PubChem BioAssay AID588404 (Broad Institute, 2011).
Results filed as inconclusive are left out. Calls of active or inactive are those of the source.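 How the source made its calls: active means every replicate run active, meaning lowered signal with potency within ten times the top valid dose; inconclusive means runs neither all active nor all inactive; inactive means all replicate runs inactive, including opposite-direction effects.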

System: S. cerevisiae expressing HsHsp90, growth, BacTiter-Glo 48 h
Assay: yeast relying on human Hsp90, growth inhibitors – plate reader, dry powder samples, counter-screen for P. falciparum Hsp90 inhibitor project, dose response (AID 588404)
Settings: not given

Compared with O=S(=O)(NC1CCCCCC1)c1ccc(Br)s1, CCOc1cc(S(=O)(=O)NC2CCCCCC2)ccc1F is 3.9-fold higher in AC50: 6.82 µM for the first, 26.6 µM for the second.

First: O=C1C(Cl)=C(Oc2ccccc2)C(=O)c2ccccc21
Second: O=C(O)/C=C/c1cn(-c2ccccc2)nc1-c1cc2ccccc2o1
The AC50 of the first is lower: under 2.35 µM for the first, 9.22 µM for the second.

Going from O=S(=O)(/C=C/c1ccccc1)NC1CCCCCCC1 to O=S(=O)(NC1CC2CCC1C2)c1ccc(Cl)cc1 (centres undefined), the AC50 falls from 19.8 µM to 7.89 µM (2.5-fold).

CCN(CC)c1ccc(/C=C2/SC(=O)N(C(C)C)C2=O)o1 showed an AC50 of 12.3 µM.

System: not listed separately
Assay: as above
Settings: S. cerevisiae expressing HsHsp90, growth, BacTiter-Glo 48 h; at 150 µM (top of the series)

In the case of O=C1C(Cl)=C(NCCc2ccccc2)C(=O)c2ccccc21, the activity change, negative = inhibition is reported as 20.9% (inactive).
With COc1ccc2c(c1)[nH]c1c(C)nccc12 the activity change, negative = inhibition was 9.79% (inactive).
